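These data come from cells grown in 96-well plates and exposed to compound for 48 hours at five concentrations. GI50 = concentration required for 50% inhibition of growth.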 The source made the active and inactive calls. Cut-off read from the data, not from the text of the source: active = GI50 up to about 1.1 µM and inactive = higher.
Columns and labels:
Test in all cases: inhibition of tumour cell growth, NCI panel, 48 h
CCRF-CEM = test system: CCRF-CEM
SNB-75 = test system: SNB-75
SK-MEL-5 = test system: SK-MEL-5
HOP-62 = test system: HOP-62
SK-MEL-2 = test system: SK-MEL-2
SF-295 = test system: SF-295
RPMI-8226 = test system: RPMI-8226
BT-549 = test system: BT-549
MCF7 = test system: MCF7
OVCAR-4 = test system: OVCAR-4
SNB-19 = test system: SNB-19
MDA-MB-435 = test system: MDA-MB-435
HCT-116 = test system: HCT-116
MOLT-4 = test system: MOLT-4
HT-29 = test system: HT-29
HOP-92 = test system: HOP-92
TK-10 = test system: TK-10
A498 = test system: A498
NCI-H522 = test system: NCI-H522

Row | Structure (SMILES) | GI50 (CCRF-CEM) | GI50 (SNB-75) | GI50 (SK-MEL-5) | GI50 (HOP-62) | GI50 (SK-MEL-2) | GI50 (SF-295) | GI50 (RPMI-8226) | GI50 (BT-549) | GI50 (MCF7) | GI50 (OVCAR-4) | GI50 (SNB-19) | GI50 (MDA-MB-435) | GI50 (HCT-116) | GI50 (MOLT-4) | GI50 (HT-29) | GI50 (HOP-92) | GI50 (TK-10) | GI50 (A498) | GI50 (NCI-H522)
1 | COc1ccc(-c2nc(O)c3ccccc3n2)cc1OC | > 100 µM (inactive) | 23.8 µM (inactive) | > 100 µM (inactive) | 33.8 µM (inactive) | 98.4 µM (inactive) | 50.8 µM (inactive) | 54.2 µM (inactive) | 64 µM (inactive) | > 100 µM (inactive) | > 100 µM (inactive) | 31.2 µM (inactive) | > 100 µM (inactive) | > 100 µM (inactive) | > 100 µM (inactive) | > 100 µM (inactive) | – | – | – | –
2 | COc1ccc(-c2cc(-c3ccc(Cl)cc3)n(C3OC(CO)C(O)C(O)C3O)c(=S)c2C#N)cc1 (stereo not given) | – | 89.7 µM (inactive) | 16.8 µM (inactive) | 57.8 µM (inactive) | 26.9 µM (inactive) | > 100 µM (inactive) | 30.5 µM (inactive) | 35.2 µM (inactive) | > 10 µM (inactive) | 30 µM (inactive) | > 100 µM (inactive) | 75.5 µM (inactive) | 34.2 µM (inactive) | 5.79 µM (inactive) | 24.2 µM (inactive) | > 100 µM (inactive) | 30.3 µM (inactive) | – | –
3 | CCC(=O)C1(c2ccccc2)CCN(C)CC1 | > 100 µM (inactive) | > 100 µM (inactive) | > 100 µM (inactive) | > 100 µM (inactive) | – | > 100 µM (inactive) | > 100 µM (inactive) | – | > 100 µM (inactive) | > 100 µM (inactive) | > 100 µM (inactive) | – | > 100 µM (inactive) | > 100 µM (inactive) | > 100 µM (inactive) | > 100 µM (inactive) | > 100 µM (inactive) | > 100 µM (inactive) | –
4 | Nc1nc[n+](Cc2ccccc2)c2ncn(Cc3ccccc3)c12 | > 100 µM (inactive) | 34.9 µM (inactive) | 97.5 µM (inactive) | 32.6 µM (inactive) | > 100 µM (inactive) | 63.8 µM (inactive) | – | – | – | > 100 µM (inactive) | > 100 µM (inactive) | – | 37.9 µM (inactive) | – | 31.6 µM (inactive) | 19.2 µM (inactive) | 28.4 µM (inactive) | 55.1 µM (inactive) | 81.3 µM (inactive)
5 | CSc1nc(C)c2c(n1)N(c1ccc(Cl)cc1)CC2 | > 100 µM (inactive) | 0.0946 µM (active) | > 100 µM (inactive) | > 100 µM (inactive) | > 100 µM (inactive) | > 100 µM (inactive) | > 100 µM (inactive) | – | > 100 µM (inactive) | 61.4 µM (inactive) | > 100 µM (inactive) | > 100 µM (inactive) | > 100 µM (inactive) | > 100 µM (inactive) | > 100 µM (inactive) | > 100 µM (inactive) | > 100 µM (inactive) | > 100 µM (inactive) | > 100 µM (inactive)
6 | COc1cc(O)c(C(C)=O)c(O)c1 | – | 50.8 µM (inactive) | 35.3 µM (inactive) | > 100 µM (inactive) | 78.9 µM (inactive) | 92.5 µM (inactive) | – | – | 37.5 µM (inactive) | 76.2 µM (inactive) | – | 82.6 µM (inactive) | 55 µM (inactive) | – | > 100 µM (inactive) | 25 µM (inactive) | > 100 µM (inactive) | 80.5 µM (inactive) | 43.1 µM (inactive)
7 | CCc1cc2c(c3c1CCCC3=O)CC1(C2)Cc2cc(CC)c3c(c2C1)C(=O)CCC3 | 26.7 µM (inactive) | 30.5 µM (inactive) | 54.3 µM (inactive) | > 100 µM (inactive) | > 100 µM (inactive) | > 100 µM (inactive) | 46.9 µM (inactive) | – | > 100 µM (inactive) | 73.6 µM (inactive) | > 100 µM (inactive) | 47.2 µM (inactive) | 61.1 µM (inactive) | 35.2 µM (inactive) | 76.2 µM (inactive) | 57.9 µM (inactive) | > 100 µM (inactive) | > 100 µM (inactive) | 62.8 µM (inactive)
8 | O=c1[nH]nc(-c2ccccc2)c(-c2ccccc2)c1-n1nc(-c2ccccc2)c2ccccc2c1=O | 27.9 µM (inactive) | > 100 µM (inactive) | > 100 µM (inactive) | > 100 µM (inactive) | 69 µM (inactive) | 43.2 µM (inactive) | 32 µM (inactive) | – | – | > 100 µM (inactive) | – | – | 83.9 µM (inactive) | 17 µM (inactive) | 68.5 µM (inactive) | 75.5 µM (inactive) | > 100 µM (inactive) | > 100 µM (inactive) | 34 µM (inactive)
9 | SC1=NNC2(C(S)=N1)c1ccccc1-c1ccccc12 | > 10 µM (inactive) | > 10 µM (inactive) | > 10 µM (inactive) | > 10 µM (inactive) | – | – | > 10 µM (inactive) | > 10 µM (inactive) | 5.37 µM (inactive) | > 10 µM (inactive) | – | – | – | > 10 µM (inactive) | > 10 µM (inactive) | > 10 µM (inactive) | > 10 µM (inactive) | 0.697 µM (active) | –
10 | COC(=O)c1cccc(C)c1C1CN=NC12Cc1cc(C)cc(C)c1C2=O (stereo not given) | 28.4 µM (inactive) | 24.9 µM (inactive) | 31.6 µM (inactive) | 53 µM (inactive) | – | – | 33.5 µM (inactive) | – | 40.4 µM (inactive) | 51.1 µM (inactive) | 48.9 µM (inactive) | 30.1 µM (inactive) | 22.8 µM (inactive) | 27 µM (inactive) | 24.7 µM (inactive) | 47.8 µM (inactive) | > 100 µM (inactive) | 51.5 µM (inactive) | 31.3 µM (inactive)
11 | O=C1C(Cl)=C(Cl)C(=O)C(CCNc2nccs2)=C1Cl | 0.335 µM (active) | 23.3 µM (inactive) | 19.5 µM (inactive) | > 100 µM (inactive) | 27.6 µM (inactive) | > 100 µM (inactive) | – | – | 33 µM (inactive) | > 100 µM (inactive) | > 100 µM (inactive) | 21.4 µM (inactive) | 28.2 µM (inactive) | 51.4 µM (inactive) | 35.2 µM (inactive) | 22.1 µM (inactive) | 29.2 µM (inactive) | – | 13.1 µM (inactive)
12 | CCN(CC)C(=O)CCNC(C)Cc1c[nH]c2ccccc12 (stereo not given) | > 100 µM (inactive) | > 100 µM (inactive) | > 100 µM (inactive) | > 100 µM (inactive) | > 100 µM (inactive) | > 100 µM (inactive) | > 100 µM (inactive) | – | – | > 100 µM (inactive) | > 100 µM (inactive) | > 100 µM (inactive) | > 100 µM (inactive) | > 100 µM (inactive) | > 100 µM (inactive) | 96.8 µM (inactive) | > 100 µM (inactive) | > 100 µM (inactive) | > 100 µM (inactive)
13 | CN1C(=O)C2(C=CC(O)CC2)c2ccccc21 (stereo not given) | > 100 µM (inactive) | > 100 µM (inactive) | > 100 µM (inactive) | > 100 µM (inactive) | > 100 µM (inactive) | > 100 µM (inactive) | > 100 µM (inactive) | – | > 100 µM (inactive) | > 100 µM (inactive) | > 100 µM (inactive) | > 100 µM (inactive) | > 100 µM (inactive) | > 100 µM (inactive) | > 100 µM (inactive) | > 100 µM (inactive) | > 100 µM (inactive) | > 100 µM (inactive) | > 100 µM (inactive)
